For assay [1], the system named is Aβ induced cell death. In words: Protection against Aβ induced cell death. The assay is classed as cell-based. The conditions noted are these: by enhancing mitochondrial function.
Assay [2] concerns SAMP8 mice and APP transgenic mice. The conditions noted are these: intranasal administration, cited from earlier work.

Where two headings read alike, the source gives them in different places. No end group written: not given here.

The values that follow come from US11181533B2, “Diagnosing and treating Alzheimer's disease” (DIGNITY HEALTH, priority 2013, dated 2021).

For “Pituitary Adenylate Cyclase Activating Polypeptide (HSDGIFTDSYSRYRKQMAVKKYLAAVLGKRYKQRVKNK; ends and bridges not checked; UniProt P18509 132-169, looked up) [PACAP, small peptide with either 38 amino acids in full length form (PACAP-38), or 27 amino acids in short form (PACAP-27); neurotrophin]”, the “protection against Aβ induced cell death” value in assay [1] was “protects against Aβ induced cell death”. The Novel object recognition entry in assay [2] (APP transgenic mice) and in assay [2] (SAMP8 mice) was “enhances Novel object recognition” each time.
